Values quoted from earlier work as cited in patent US9668974B2, “Depot formulations of a local anesthetic and methods for preparation thereof” (PAINREFORM LTD., priority 2012, dated 2017).

Details: in vivo

For `CCCN1CCCC[C@H]1C(=O)Nc1c(C)cccc1C` [ropivacaine], the Toxic threshold (plasma ropivacaine) is listed as 0.6 µg/mL.
